PMC9297976 (Journal of Applied Toxicology, 2021)

Columns and labels:
medaka Esr1 (mEsr1) [1] = target: T1, medaka Esr1 (mEsr1) (Oryzias latipes, UniProt P50241); assay: Medaka Esr1 reporter gene assay, antagonist assay; assay type: cell-based, Japanese medaka (Oryzias latipes); settings: E2 spiked at 1.0 nM (B); MAC = 1.0 × 10^−5 M
T1 sequence (P50241 1-620): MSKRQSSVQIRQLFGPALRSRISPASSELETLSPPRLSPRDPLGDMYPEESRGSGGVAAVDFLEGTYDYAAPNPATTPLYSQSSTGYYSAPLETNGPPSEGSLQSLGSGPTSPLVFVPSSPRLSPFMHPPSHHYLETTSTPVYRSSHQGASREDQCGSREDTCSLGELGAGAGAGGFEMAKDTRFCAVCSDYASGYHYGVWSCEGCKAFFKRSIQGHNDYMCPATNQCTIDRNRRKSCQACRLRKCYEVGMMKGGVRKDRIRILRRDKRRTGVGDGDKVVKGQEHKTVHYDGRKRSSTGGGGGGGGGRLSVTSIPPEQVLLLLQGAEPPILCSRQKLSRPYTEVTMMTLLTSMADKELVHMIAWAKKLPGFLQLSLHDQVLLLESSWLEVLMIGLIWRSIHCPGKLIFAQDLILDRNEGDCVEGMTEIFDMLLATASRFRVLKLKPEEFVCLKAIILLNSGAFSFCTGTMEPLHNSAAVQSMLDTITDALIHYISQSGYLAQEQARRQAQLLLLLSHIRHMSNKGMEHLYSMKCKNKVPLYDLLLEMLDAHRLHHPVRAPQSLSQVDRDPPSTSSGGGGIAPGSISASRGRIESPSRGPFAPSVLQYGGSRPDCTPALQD

medaka ARβ (mArβ) [2] = target: T2, medaka ARβ (mArβ) (Oryzias latipes, UniProt D1MV73); assay: Medaka ARβ reporter gene assay, agonist assay; assay type: cell-based, Japanese medaka (Oryzias latipes); settings: MAC = 1.0 × 10^−5 M
T2 sequence (D1MV73 1-744): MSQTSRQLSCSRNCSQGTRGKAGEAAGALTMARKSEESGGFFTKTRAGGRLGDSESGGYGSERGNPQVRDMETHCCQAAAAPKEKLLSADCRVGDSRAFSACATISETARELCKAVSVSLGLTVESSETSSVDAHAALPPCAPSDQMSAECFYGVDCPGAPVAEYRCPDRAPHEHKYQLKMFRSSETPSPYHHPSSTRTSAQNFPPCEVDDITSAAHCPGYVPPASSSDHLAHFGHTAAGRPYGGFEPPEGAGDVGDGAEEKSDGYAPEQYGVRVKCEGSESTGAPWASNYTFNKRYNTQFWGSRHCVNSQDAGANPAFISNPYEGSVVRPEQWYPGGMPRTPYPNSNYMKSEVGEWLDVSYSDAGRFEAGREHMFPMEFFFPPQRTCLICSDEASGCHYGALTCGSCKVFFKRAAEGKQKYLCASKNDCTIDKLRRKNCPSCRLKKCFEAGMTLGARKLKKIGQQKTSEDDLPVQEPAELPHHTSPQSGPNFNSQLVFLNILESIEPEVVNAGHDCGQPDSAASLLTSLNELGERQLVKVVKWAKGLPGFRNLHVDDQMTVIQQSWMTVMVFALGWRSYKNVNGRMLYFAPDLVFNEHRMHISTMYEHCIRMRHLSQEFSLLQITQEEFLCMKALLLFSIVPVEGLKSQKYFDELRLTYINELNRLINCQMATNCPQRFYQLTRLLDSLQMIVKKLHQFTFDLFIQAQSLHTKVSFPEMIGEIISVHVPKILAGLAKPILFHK

medaka Esr1 (mEsr1) [3] = target: T1, medaka Esr1 (mEsr1); assay: cell-based; parameters: species or system Japanese medaka (Oryzias latipes)
[4] = system: Japanese medaka (Oryzias latipes); assay: Fish Short‐Term Reproduction Assay; assay type: in vivo; settings: for GSI Female / GSI Male / HSI Female / HSI Male / Length Female / Length Male / Weight Female / Weight Male: completion of exposure
[5] = ref Brooke et al., 2009; Saeger et al., 1979; cited from earlier work
medaka ARβ (mArβ) [6] = target: T2, medaka ARβ (mArβ); assay: Medaka ARβ reporter gene assay, antagonist assay; assay type: cell-based, Japanese medaka (Oryzias latipes); settings: 11‐KT spiked at 50 nM (D); MAC = 1.0 × 10^−5 M
[7] = 44.9 μg/L measured, 21 d, sig. ↓ vs control
[8] = measured concentration 2.13 μg/L
[9] = measured concentration 7.19 μg/L
[10] = measured concentration 17.1 μg/L
[11] = measured concentration 44.9 μg/L

O=P(Oc1ccccc1)(Oc1ccccc1)Oc1ccccc1 [TPP, Triphenyl phosphate]
Antagonistic activity (medaka Esr1 (mEsr1) [1]): NE (MAC = 1.0 × 10^−5 M)^(B) | Agonistic activity (medaka ARβ (mArβ) [2]): NE (MAC = 1.0 × 10^−5 M) | EC50 (medaka Esr1 (mEsr1) [3]): 9.7 µM | In vitro positive: Esr (medaka Esr1 (mEsr1) [3]; mode of action in which EC50 or PC10 was obtained in RGA): Esr | Fertility rate ([4]; 2.13 μg/L measured, 21 d): 89 ± 4.9% | Hepatic VTG, female ([4]; 2.13 μg/L measured, 21 d): 542 ± 115 ng/mg‐liver | Hepatic VTG, male ([4]; 2.13 μg/L measured, 21 d): 6.9 ± 4.0 ng/mg‐liver | Mortality ([4]; 2.13 μg/L measured, 21 d): 0.0% | Mortality, number of dead fish ([4]; 2.13 μg/L measured, 21 d): 0 | Number of fertilized eggs (per female per day) ([4]; 2.13 μg/L measured, 21 d): 18 ± 3.1 | Number of total eggs (per female per day) ([4]; 2.13 μg/L measured, 21 d): 20 ± 2.7 | SSC female (joint plates with papillary processes) ([4]; 2.13 μg/L measured, 21 d): 0 ± 0 | SSC male (joint plates with papillary processes) ([4]; 2.13 μg/L measured, 21 d): 83 ± 7.4 | Fertility rate ([4]; 7.19 μg/L measured, 21 d): 91 ± 3.8% | Hepatic VTG, male ([4]; 7.19 μg/L measured, 21 d): 8.4 ± 9.0 ng/mg‐liver | Mortality ([4]; 7.19 μg/L measured, 21 d): 0.0% | Mortality, number of dead fish ([4]; 7.19 μg/L measured, 21 d): 0 | Number of fertilized eggs (per female per day) ([4]; 7.19 μg/L measured, 21 d): 17 ± 3.4 | Number of total eggs (per female per day) ([4]; 7.19 μg/L measured, 21 d): 19 ± 3.1 | SSC female (joint plates with papillary processes) ([4]; 7.19 μg/L measured, 21 d): 0 ± 0 | SSC male (joint plates with papillary processes) ([4]; 7.19 μg/L measured, 21 d): 84 ± 6.9 | Hepatic VTG, female ([4]; 7.19 μg/L measured, 21 d, sig. ↓ vs control): 360 ± 60 ng/mg‐liver | Fertility rate ([4]; 17.1 μg/L measured, 21 d): 93 ± 2.2% | Hepatic VTG, male ([4]; 17.1 μg/L measured, 21 d): 11 ± 9.4 ng/mg‐liver | Mortality ([4]; 17.1 μg/L measured, 21 d): 0.0% | Mortality, number of dead fish ([4]; 17.1 μg/L measured, 21 d): 0 | Number of fertilized eggs (per female per day) ([4]; 17.1 μg/L measured, 21 d): 19 ± 1.8 | Number of total eggs (per female per day) ([4]; 17.1 μg/L measured, 21 d): 20 ± 2.0 | SSC female (joint plates with papillary processes) ([4]; 17.1 μg/L measured, 21 d): 0 ± 0 | SSC male (joint plates with papillary processes) ([4]; 17.1 μg/L measured, 21 d): 83 ± 7.2 | Hepatic VTG, female ([4]; 17.1 μg/L measured, 21 d, sig. ↓ vs control): 420 ± 77 ng/mg‐liver | Fertility rate ([4]; 44.9 μg/L measured, 21 d): 91 ± 3.9% | Hepatic VTG, male ([4]; 44.9 μg/L measured, 21 d): 8.8 ± 8.1 ng/mg‐liver | Mortality ([4]; 44.9 μg/L measured, 21 d): 4.2% | Mortality, number of dead fish ([4]; 44.9 μg/L measured, 21 d): 1 | SSC female (joint plates with papillary processes) ([4]; 44.9 μg/L measured, 21 d): 0 ± 0 | SSC male (joint plates with papillary processes) ([4]; 44.9 μg/L measured, 21 d): 90 ± 8.0 | Hepatic VTG, female [4, 7]: 417 ± 70 ng/mg‐liver | Number of fertilized eggs (per female per day) [4, 7]: 15 ± 3.5 | Number of total eggs (per female per day) [4, 7]: 16 ± 3.2 | Fecundity, number of total eggs (in words) ([4]; 21 d): statistically significant decrease | LOECmVTG ([4]; LOEC on VTG induction in males): ND (>44.9) μg/L | LOECREPRO ([4]; LOEC on reproduction (fecundity and/or fertility)): 44.9 µg/L | Fertility rate (in words) ([4]; chemicals with significant decrease of number of total eggs): no significant effect | LOECREPRO (reduction in fecundity or fertility) ([4]; concentrations without overt toxicity): 44.9 µg/L | LOECTOX ([4]; lowest observed effect concentration on mortality): ND (>44.9) μg/L | GSI Female [4, 8]: 7.9 ± 0.5% | GSI Male [4, 8]: 0.87 ± 0.17% | HSI Female [4, 8]: 3.5 ± 0.39% | HSI Male [4, 8]: 1.4 ± 0.12% | Length Female [4, 8]: 35.3 ± 0.7 mm | Length Male [4, 8]: 37.9 ± 1.1 mm | Weight Female [4, 8]: 449 ± 19 mg | Weight Male [4, 8]: 532 ± 44 mg | GSI Female [4, 9]: 8.1 ± 0.6% | GSI Male [4, 9]: 0.95 ± 0.09% | HSI Female [4, 9]: 3.1 ± 0.21% | HSI Male [4, 9]: 1.7 ± 0.29% | Length Female [4, 9]: 35.5 ± 0.3 mm | Length Male [4, 9]: 38.0 ± 1.1 mm | Weight Female [4, 9]: 464 ± 27 mg | Weight Male [4, 9]: 544 ± 49 mg | GSI Female [4, 10]: 7.7 ± 0.7% | GSI Male [4, 10]: 0.94 ± 0.10% | HSI Female [4, 10]: 3.6 ± 0.46% | HSI Male [4, 10]: 1.7 ± 0.24% | Length Female [4, 10]: 35.2 ± 1.0 mm | Length Male [4, 10]: 37.7 ± 1.0 mm | Weight Female [4, 10]: 468 ± 34 mg | Weight Male [4, 10]: 539 ± 31 mg | GSI Female [4, 11]: 9.4 ± 1.3% | GSI Male [4, 11]: 0.80 ± 0.07% | HSI Female [4, 11]: 3.6 ± 0.60% | HSI Male [4, 11]: 1.7 ± 0.13% | Length Female [4, 11]: 34.4 ± 0.4 mm | Length Male [4, 11]: 38.3 ± 1.1 mm | Weight Female [4, 11]: 432 ± 32 mg | Weight Male [4, 11]: 583 ± 68 mg | Water solubility [5]: 1 to 1.9 µg/mL | Antagonistic activity (medaka ARβ (mArβ) [6]): NE (MAC = 1.0 × 10^−5 M)^(D)
